Experimental data taken from patent US11590117B2, “Treatment of a hematologic malignancy with 2-(4-chlorophenyl)-n-((2-(2,6-dioxopiperidin-3-yl)-1-oxoisoindolin-5-yl)methyl)-2,2-difluoroacetamide” (priority 2016, dated 2023).

How the values were obtained:
THLE-2 = assay: CellTiter-Glo (CTG) cell proliferation assay, 72 hours, counter-screen; assay type: cell-based, human
Description: Preparation of Solutions of Test Article: Compounds were plated into black 384-well plates (Corning Inc.) to a final DMSO volume of 0.1% assuming a maximal volume of 50 μL. A 10-point dose response starting at 10 μM with a 1:3 dilution was printed in duplicate by acoustic dispense using the EDC ATS-100 platform.
Cell Proliferation Assays: The effect of Compound 1 on the proliferation/viability of the hematological cell lines (Table 1 Table, Table 2 and Table 3), THLE-2, or PBMCs was assessed after 72 hours incubation using CTG (Promega), according to manufacturer's instructions. Hematological cell lines were dispensed into compound plates by a Multidrop™ Combi Reagent Dispenser (Thermo Scientific, Waltham, Mass.) at a concentration of 0.1 to 0.3×10^6 cells per mL in a 50 μL total volume. THLE-2 cells were seeded out at 1000 cells per well in 50 μL volume and incubated for 72 hours. At 72 hours, 25 μL per well of CTG was dispensed by a Multidrop™ Combi Reagent Dispenser and adenosine triphosphate (ATP) release by viable cells was measured as relative luminescence units after 30 minutes using the Envision platform.
In order to calculate the therapeutic window for Compound 1, the compound was counter-screened against the immortalized (but non-tumorigenic) human hepatocyte-derived cell line THLE-2 (Pfeifer, et al, Proc Natl Acad Sci USA 1993 90(11):5123-5127) and against primary human PBMCs. […] The Compound 1 therapeutic window for the 10 sensitive AML cell lines as compared to THLE-2 cells ranged from 4.1 (KG-1a) to 57 (HNT-34) (method 1) or from 5.7 (KG-1a) to 79.5 (HNT-34) (method 2); the Compound 1 therapeutic window as compared to PBMCs ranged from 2.6 (KG-1a) to 36 (HNT-34)), or from 1.5 (KG-1a) to 21 (HNT-34) (Table 6).
Cultures of 11 different AML cell lines were incubated 72 hours with Compound 1 at concentrations of 0.5 nM to 10 μM. Proliferation was assessed using the CellTitre-Glo® assay. Results for cultures incubated with Compound 1 were normalized to results for control cultures for each cell line. […]

[1] = tested on: Bone marrow CD34+ cells from healthy donors (myeloid differentiation); assay: Neutrophil maturation ex vivo, bone marrow CD34+ cells, flow cytometry; assay type: cell-based
Description: Compound 1 effects on the proliferation of CFU-GM progenitor cells are of special relevance because of the role of these progenitor cells in drug-induced neutropenia. Neutrophils are derived from CFU-GM progenitors occurring through distinct stages, from progenitor cells through myeloblasts (stage I), promyelocytes (stage II) and myelocytes (stage III) that finally mature towards neutrophils with banded or segmented nuclei. The effects of Compound 1 on neutrophil maturation were determined by using two-dimensional cultivation of progenitors followed by flow cytometry. Bone marrow CD34+ cells obtained from healthy volunteers were transferred to tissue culture medium and myeloid differentiation was induced ex vivo by adding stem cell factor (SCF), Fms-related tyrosine kinase 3 ligand (Flt-3 ligand), and granulocyte colony stimulating factor (G-CSF). Concentrations of Compound 1 up to 30 nM and exposure times of 8, 24, and 72 hours starting at Day 0 were selected to evaluate the effect of Compound 1 in this system. After exposure to Compound 1, cells were washed and then incubated in culture medium in the absence of Compound 1 until Day 14. Cell differentiation and apoptosis were measured in a flow cytometry-based method at Days 3, 7, 10, and 14 of culture, with apoptotic and dead cells identified as Annexin V positive and 7-aminoactinomycin D positive.
In FIG. 34, Bone marrow C34+ cells from healthy donors were incubated with 30 nM Compound 1 or DMSO. Compound 1 was washed out after 8, 24 or 72 hours, the medium was replaced, and the cultures were incubated until Day 14 in the absence of Compound 1 or DMSO. Cells were classified from most immature to most mature as HPC, Stage I, Stage II, Stage III and Stage IV according to their expression of CD34, CD33 and CD11b. Then apoptotic cells from each stage were identified as positive for Annexin V and labeled as AV+ HPC, AV+ Stage I, AV+ Stage II, AV+ Stage II and AV+ Stage IV. […] Representative results are shown for bone marrow progenitors from one of two healthy donors evaluated. […]

HNT-34 cells and PBMCs = assay: JC-1 mitochondrial membrane potential assay; assay type: cell-based, human; conditions: HNT-34 cells over non-pre-activated PBMCs; 0.1 μM Compound 1; 72 hours
HNT-34 cells = assay: Compound 1 washout assay (glutarimide washout, viability at 72 hours); assay type: cell-based, human; conditions: viability after 72 hours
Description: Compound 1 Washout Assay: For washout experiments, AML cell lines were plated in U-bottom 96-well plates at a density of 60,000 cells per well. All cells were treated at time zero (t=0) with Compound 1, then, at each time point, cells were resuspended in washout media containing glutarimide at 1000-fold excess over the compound working concentration (eg, 100 μM glutarimide for washout of 100 nM compound treatment). At the end of the incubation period, the plates were centrifuged for 3 minutes at 200 g, supernatant was removed, and cells were resuspended in 100 μL/well 1× Annexin V binding buffer containing Annexin V (2.5 μL/well) and 7-AAD (5 μL/well). Flow cytometry was performed using a BD FACSarray instrument and results were quantified using FlowJo software. At the same time, CTG was added to the 96-(black) well plates and processed as described above in the cell proliferation assay.
In order to determine at what time point Compound 1 causes AML cell lines to commit to apoptosis, washout experiments were performed at different time points, and the cell viability was assessed after 72 hours (see schematic in FIG. 30 A). Compound 1 (100 nM) irreversibly committed the cells to apoptosis within 8 to 16 hours of treatment (FIG. 30 B). Washing out 100 nM Compound 1 between 1 and 4 hours reduced the potency (right-shift in the EC50 curve) by ˜10-fold.

[2] = THLE-2 normal cells, 0.1 nM to 100 μM

SMILES: O=C1CCC(N2Cc3cc(CNC(=O)C(F)(F)c4ccc(Cl)cc4)ccc3C2=O)C(=O)N1 (stereo not drawn) [Compound 1, 2-(4-chlorophenyl)-N-((2-(2,6-dioxopiperidin-3-yl)-1-oxoisoindolin-5-yl)methyl)-2,2-difluoroacetamide]
- IC50 (THLE-2; Homo sapiens, THLE-2, 72 h, THLE-2 non-tumorigenic human hepatocyte-derived cell line, 72 hours, read-out: antiproliferative IC50): 10 µM
- AUC Method 1 (THLE-2; [2]): 393.0 arbitrary units
- AUC Method 2 (THLE-2; [2]): 549.1 arbitrary units
- viability during neutrophil maturation ([1]; 30 nM (highest concentration tested), exposure 24 hours and 72 hours): decreased
- cell viability after removal of Compound 1 ([1]; 30 nM, cultures exposed for 24 hours): reaching control values at Day 10
- viability during neutrophil maturation ([1]; ≤3 nM in 24-hour and 72-hour exposure groups, or 0.03 to 30 nM with 8 hours exposure): no reduction in viability
- difference in increase of membrane depolarization (HNT-34 cells and PBMCs): ~7 fold
- reduction of potency on washout (HNT-34 cells; washout at 8 to 16 hours): ~4 fold
- reduction of potency (right-shift in the EC50 curve) on washout (HNT-34 cells; washout between 1 and 4 hours): ~10 fold
